Legend:
mice = conditions: reported by Gad et al.; cited from earlier work
[1] = tested on: vascular smooth muscle tissue; test: Vascular tissue contractile response (muscle bath, KCl-contracted tissue); type: cell-based, white New Zealand rabbits and human; conditions: cumulative 10^-8 to 10^-5 M, tissue contracted with KCl, FIG. 1 and FIG. 2
Protocol: Ginsburg (Stanford University Medical School), crown and silacrown ethers in concentrations of 10^−8M, 10^−7 M, 10^−6 M and 10^−5M were prepared fresh daily in deionized water. The 10^−5 M concentrations were used for the preliminary screening of the ionophores for vasoactivity to determine the most promising candidates. The procedures utilized in the removal and preparation of vascular smooth muscle tissue obtained from aorta of white New Zealand rabbits and human hearts from transplant patients are well established and have been successfully utilized by the personnel at Stanford University Medical School (Cardiology Department). A computer interfaced muscle bath system designed by Dr. Robert Ginsburg and associates was used to carry out the experimental procedure. The chambers (32 per system) were filled with standard Tyrode solution (chambers maintain a constant volume of 100 ml) and aerated continuously. The tissues were placed in the chambers and connected to stainless steel hooks to a linear motion transducer and preequilibrated for 1.5 hours at a constant temperature of 37° C. (a tension of 0.5 g was maintained during the pre-equilibration period).
A starting tension of approximately 0.5 g was achieved before adding the agonist ([…] KCl final concentration) to contract the tissues. After the contractions leveled off, the tensions were recorded before and after the crown ethers were added. To test for tissue integrity, 10^−5 M nitroglycerin was added at the end of the experiment (some relaxation should be observed), and the tension was recorded. […]
Accumulative dose response curves were obtained by repeating the previous procedure on both human and rabbit vascular smooth muscle tissues as previously described. However, crown ether concentrations of 10^−8 M, 10^−7 M, 10^−6 M and 10^−5 M were added accumulatively instead of only one dose (10^−5 M was used to screen the crowns) and the tensions recorded for each concentration (before the next concentration of ionophore was added, the contractile tension of the tissue had leveled off).

[2] = tested on: adult albino Sprague-Dawley rats; test: Acute oral toxicity study in rats (GLP); type: in vivo, rat
From the text: (§1) No mortality was observed during the study. […] Animals were asymptomatic by day 3. […] Thus, crown ethers and silacrown ethers of similar cavity size behave similarly, but the silacrown ethers have dramatically lower toxicity.

[3] = Acute oral toxicity study in rats (GLP); type: in vivo, rat; conditions: rat, in vivo, adult albino Sprague-Dawley rats
From the text: as §1

Compound	LD50 acute oral toxicity (mice) [mg/kg]	contractile response of vascular smooth muscle tissue (relaxation) [1]	further results
C1COCCOCCOCCO1 [Example 12-crown-4, 12-crown-4]	2830		
12-crown-6 [Example 12-crown-6]		similar	
C1COCCOCCOCCOCCO1 [Example 15-crown-5, 15-crown-5]	2100		
C[Si]1(C)OCCOCCOCCOCCOCCO1 [dimethylsila-17-crown-6]		similar	
C[Si]1(C)OCCOCCOCCOCCO1 [dimethylsila-14-crown-5]			acute oral LD50 [2]: 9,900 mg/kg
C[Si]1(C)OCCOCCOCCOC2CCCCC2O1 (stereo not drawn) [dimethylsila-14-cyclohexylcrown-5, Dimethylsila-14-cyclohexylcrown-5]			LD50 [3]: > 5000 mg/kg
C1CCC2OCCOCCOC3CCCCC3OCCOCCOC2C1 (stereo not drawn) [dicyclohexano-18-crown-6]	176		
C1CCC2OCCOCCOCCOC3CCCCC3OCCOCCOCCOC2C1 (stereo not drawn) [dicyclohexano-24-crown-8]	75		
C[Si]1(C)OCCOCCOCCO1 [1,1-dimethylsila-11-crown-4]		similar	

Reference: US11479568B2, “Silacrown ethers, pharmaceutical compositions thereof, and therapeutic applications thereof” (priority 2020, dated 2022)
